{"source": "ChEMBL document CHEMBL5042512", "about": "(Eur J Med Chem, 2022)", "key": {"KYSE-450 [1]": {"system": "KYSE-450", "experiment": "Induction of apoptosis in human KYSE-450 cells assessed as caspase-3 cleavage at 80 to 100 nM measured after 48 hrs by western blot analysis", "type": "functional, cell-based", "details": "dose 80-100 nM"}, "KYSE-30 [2]": {"system": "KYSE-30", "experiment": "Induction of mitochondrial membrane potential loss in human KYSE-30 cells assessed as upregulation of NOXA protein at 80 to 100 nM measured after 48 hrs by western blot analysis", "type": "functional, cell-based", "details": "dose 80-100 nM"}, "MGC-803": {"system": "MGC-803", "experiment": "Antiproliferative activity against human MGC-803 cells assessed as cell growth inhibition measured after 48 hrs by CCK8 assay", "type": "functional, cell-based", "details": "MGC-803, 48 h"}, "HCT-116": {"system": "HCT-116", "experiment": "Antiproliferative activity against human HCT-116 cells assessed as cell growth inhibition measured after 48 hrs by CCK8 assay", "type": "functional, cell-based", "details": "HCT-116, 48 h"}, "Sus scrofa": {"organism": "Sus scrofa", "experiment": "Inhibition of pig brain tubulin polymerization at 3 uM by spectrophotometry"}, "Tubulin (Homo sapiens) [3]": {"molecular_target": "T1, Tubulin (Homo sapiens) (UniProt P68371+Q9H4B7+P0DPH7+P68366+Q13509+Q71U36+P04350+Q3ZCM7+P07437+P68363+Q9BQE3+Q6PEY2+Q13885+Q9BVA1+Q9BUF5)", "experiment": "Inhibition of tubulin polymerization in human KYSE-30 cells assessed as microtubule assembly at 0.1 uM measured after 48 hrs by immunofluorescence assay", "type": "cell-based"}, "Tubulin (Homo sapiens) [4]": {"molecular_target": "T1, Tubulin (Homo sapiens)", "experiment": "Inhibition of tubulin polymerization in human KYSE-30 cells assessed as weakening of beta tubulin at 100 to 300 nM for 2 hrs by EBI alkylate competition assay", "type": "cell-based", "details": "dose 100-300 nM"}, "Tubulin (Homo sapiens) [5]": {"molecular_target": "T1, Tubulin (Homo sapiens)", "experiment": "Inhibition of tubulin polymerization in human KYSE-450 cells assessed as weakening of beta tubulin at 100 to 300 nM for 2 hrs by EBI alkylate competition assay", "type": "cell-based", "details": "dose 100-300 nM"}, "KYSE-30 [6]": {"system": "KYSE-30", "experiment": "Antiproliferative activity against human KYSE-30 cells assessed as cell viability measured after 48 hrs by CCK8 assay", "type": "functional, cell-based", "details": "KYSE-30, 48 h"}, "KYSE-450 [7]": {"system": "KYSE-450", "experiment": "Antiproliferative activity against human KYSE-450 cells assessed as cell viability measured after 48 hrs by CCK8 assay", "type": "functional, cell-based", "details": "KYSE-450, 48 h"}, "KYSE-450 [8]": {"system": "KYSE-450", "experiment": "Antiproliferative activity against human KYSE-450 cells assessed as inhibition of colony formation at 40 to 60 nM for 7 days by crystal violet staining based analysis", "type": "functional, cell-based", "details": "dose 40-60 nM, time 7.0 day"}, "KYSE-30 [9]": {"system": "KYSE-30", "experiment": "Induction of cell cycle arrest in human KYSE-30 cells assessed as accumulation at G2/M phase at 100 nM measured after 48 hrs by flow cytometry analysis (reference value: 19.38 %)", "type": "functional"}, "KYSE-450 [10]": {"system": "KYSE-450", "experiment": "Induction of cell cycle arrest in human KYSE-450 cells assessed as accumulation at G2/M phase at 100 nM measured after 48 hrs by flow cytometry analysis (reference value: 7.04333 %)", "type": "functional"}, "KYSE-30 [11]": {"system": "KYSE-30", "experiment": "Down regulation of CDK1 protein expression in human KYSE-30 cells at 80 to 100 nM for 48 hrs by western blot analysis", "type": "functional, cell-based", "details": "dose 80-100 nM"}, "KYSE-450 [12]": {"system": "KYSE-450", "experiment": "Down regulation of CDK1 protein expression in human KYSE-450 cells at 80 to 100 nM for 48 hrs by western blot analysis", "type": "functional, cell-based", "details": "dose 80-100 nM"}, "KYSE-30 [13]": {"system": "KYSE-30", "experiment": "Down regulation of CDC25C protein expression in human KYSE-30 cells at 80 to 100 nM for 48 hrs by western blot analysis", "type": "functional, cell-based", "details": "dose 80-100 nM"}, "KYSE-450 [14]": {"system": "KYSE-450", "experiment": "Down regulation of CDC25C protein expression in human KYSE-450 cells at 80 to 100 nM for 48 hrs by western blot analysis", "type": "functional, cell-based", "details": "dose 80-100 nM"}, "KYSE-30 [15]": {"system": "KYSE-30", "experiment": "Down regulation of p-wee1 protein expression in human KYSE-30 cells at 80 to 100 nM for 48 hrs by western blot analysis", "type": "functional, cell-based", "details": "dose 80-100 nM"}, "KYSE-450 [16]": {"system": "KYSE-450", "experiment": "Down regulation of p-wee1 protein expression in human KYSE-450 cells at 80 to 100 nM for 48 hrs by western blot analysis", "type": "functional, cell-based", "details": "dose 80-100 nM"}, "KYSE-450 [17]": {"system": "KYSE-450", "experiment": "Up regulation of p-Histone H3 protein expression in human KYSE-450 cells at 80 to 100 nM for 48 hrs by western blot analysis", "type": "functional, cell-based", "details": "dose 80-100 nM"}, "KYSE-30 [18]": {"system": "KYSE-30", "experiment": "Induction of apoptosis in human KYSE-30 cells assessed as apoptotic cells at 80 nM measured after 48 hrs by annexin-V-FITC and PI staining based flow cytometry analysis (reference value: 8.1667 %)", "type": "functional"}, "KYSE-30 [19]": {"system": "KYSE-30", "experiment": "Induction of apoptosis in human KYSE-30 cells assessed as caspase-3 cleavage at 80 to 100 nM measured after 48 hrs by western blot analysis", "type": "functional, cell-based", "details": "dose 80-100 nM"}, "KYSE-450 [20]": {"system": "KYSE-450", "experiment": "Induction of mitochondrial membrane potential loss in human KYSE-450 cells assessed as upregulation of Bax protein at 80 to 100 nM measured after 48 hrs by western blot analysis", "type": "functional, cell-based", "details": "dose 80-100 nM"}, "KYSE-450 [21]": {"system": "KYSE-450", "experiment": "Induction of mitochondrial membrane potential loss in human KYSE-450 cells assessed as upregulation of NOXA protein at 80 to 100 nM measured after 48 hrs by western blot analysis", "type": "functional, cell-based", "details": "dose 80-100 nM"}, "KYSE-30 [22]": {"system": "KYSE-30", "experiment": "Induction of mitochondrial membrane potential loss in human KYSE-30 cells assessed as downregulation of Bcl-2 protein at 80 to 100 nM measured after 48 hrs by western blot analysis", "type": "functional, cell-based", "details": "dose 80-100 nM"}, "KYSE-450 [23]": {"system": "KYSE-450", "experiment": "Induction of mitochondrial membrane potential loss in human KYSE-450 cells assessed as downregulation of Bcl-2 protein at 80 to 100 nM measured after 48 hrs by western blot analysis", "type": "functional, cell-based", "details": "dose 80-100 nM"}, "KYSE-30 [24]": {"system": "KYSE-30", "experiment": "Induction of mitochondrial membrane potential loss in human KYSE-30 cells assessed as decrease in XIAP level at 80 to 100 nM measured after 48 hrs by western blot analysis", "type": "functional, cell-based", "details": "dose 80-100 nM"}, "KYSE-450 [25]": {"system": "KYSE-450", "experiment": "Induction of mitochondrial membrane potential loss in human KYSE-450 cells assessed as decrease in XIAP level at 80 to 100 nM measured after 48 hrs by western blot analysis", "type": "functional, cell-based", "details": "dose 80-100 nM"}, "KYSE-30 [26]": {"system": "KYSE-30", "experiment": "Induction of mitochondrial membrane potential loss in human KYSE-30 cells assessed as Bak expression at 80 to 100 nM measured after 48 hrs by western blot analysis", "type": "functional, cell-based", "details": "dose 80-100 nM"}, "KYSE-450 [27]": {"system": "KYSE-450", "experiment": "Induction of mitochondrial membrane potential loss in human KYSE-450 cells assessed as Bak expression at 80 to 100 nM measured after 48 hrs by western blot analysis", "type": "functional, cell-based", "details": "dose 80-100 nM"}, "KYSE-450 [28]": {"system": "KYSE-450", "experiment": "Induction of mitochondrial membrane potential loss in human KYSE-450 cells assessed as Bcl-xL expression at 80 to 100 nM measured after 48 hrs by western blot analysis", "type": "functional, cell-based", "details": "dose 80-100 nM"}, "KYSE-30 [29]": {"system": "KYSE-30", "experiment": "Induction of mitochondrial membrane potential loss in human KYSE-30 cells assessed as Mcl-1 expression at 80 to 100 nM measured after 48 hrs by western blot analysis", "type": "functional, cell-based", "details": "dose 80-100 nM"}, "KYSE-30 [30]": {"system": "KYSE-30", "experiment": "Antiproliferative activity against human KYSE-30 cells assessed as cell viability measured up to 48 hrs by CCK8 assay", "type": "functional, cell-based", "details": "time hrs <=48, TDE = time-dependent effect"}, "KYSE-450 [31]": {"system": "KYSE-450", "experiment": "Induction of apoptosis in human KYSE-450 cells assessed as PARP cleavage at 80 to 100 nM measured after 48 hrs by western blot analysis", "type": "functional, cell-based", "details": "dose 80-100 nM"}, "KYSE-30 [32]": {"system": "KYSE-30", "experiment": "Induction of mitochondrial membrane potential loss in human KYSE-30 cells assessed as mitochondrial depolarization at 80 to 100 nM measured after 48 hrs by JCI staining based flow cytometry", "type": "functional, cell-based", "details": "dose 80-100 nM"}, "KYSE-450 [33]": {"system": "KYSE-450", "experiment": "Induction of mitochondrial membrane potential loss in human KYSE-450 cells assessed as mitochondrial depolarization at 80 to 100 nM measured after 48 hrs by JCI staining based flow cytometry", "type": "functional, cell-based", "details": "dose 80-100 nM"}}, "note": "Calls of active or inactive are those of the source. The rule behind the calls is not given here.", "data": [{"smiles": "COc1ccc(CN(C(=O)CSC(=S)N2CCN(C(=O)OC(C)(C)C)CC2)c2cc(OC)c(OC)c(OC)c2)cc1O", "values": [{"measurement": "Activity", "setting": "KYSE-450 [1]", "value": "Active"}, {"measurement": "Activity", "setting": "KYSE-30 [2]", "value": "Dose-Dependent Effect"}, {"measurement": "IC50", "setting": "MGC-803", "value": 82, "unit": "nM"}, {"measurement": "IC50", "setting": "HCT-116", "value": 128, "unit": "nM"}, {"measurement": "inhibition", "setting": "Sus scrofa", "value": "Active"}, {"measurement": "inhibition", "setting": "Tubulin (Homo sapiens) [3]", "value": "Active"}, {"measurement": "inhibition", "setting": "Tubulin (Homo sapiens) [4]", "value": "Active"}, {"measurement": "inhibition", "setting": "Tubulin (Homo sapiens) [5]", "value": "Active"}, {"measurement": "IC50", "setting": "KYSE-30 [6]", "value": 69, "unit": "nM"}, {"measurement": "IC50", "setting": "KYSE-450 [7]", "value": 76, "unit": "nM"}, {"measurement": "inhibition", "setting": "KYSE-450 [8]", "value": "Active"}, {"measurement": "Activity", "setting": "KYSE-30 [9]", "value": 76.9767, "unit": "%"}, {"measurement": "Activity", "setting": "KYSE-450 [10]", "value": 80.8933, "unit": "%"}, {"measurement": "Activity", "setting": "KYSE-30 [11]", "value": "Dose-Dependent Effect"}, {"measurement": "Activity", "setting": "KYSE-450 [12]", "value": "Dose-Dependent Effect"}, {"measurement": "Activity", "setting": "KYSE-30 [13]", "value": "Dose-Dependent Effect"}, {"measurement": "Activity", "setting": "KYSE-450 [14]", "value": "Dose-Dependent Effect"}, {"measurement": "Activity", "setting": "KYSE-30 [15]", "value": "Dose-Dependent Effect"}, {"measurement": "Activity", "setting": "KYSE-450 [16]", "value": "Dose-Dependent Effect"}, {"measurement": "Activity", "setting": "KYSE-450 [17]", "value": "Dose-Dependent Effect"}, {"measurement": "Activity", "setting": "KYSE-30 [18]", "value": 23.8, "unit": "%"}, {"measurement": "Activity", "setting": "KYSE-30 [19]", "value": "Active"}, {"measurement": "Activity", "setting": "KYSE-450 [20]", "value": "Dose-Dependent Effect"}, {"measurement": "Activity", "setting": "KYSE-450 [21]", "value": "Dose-Dependent Effect"}, {"measurement": "Activity", "setting": "KYSE-30 [22]", "value": "Dose-Dependent Effect"}, {"measurement": "Activity", "setting": "KYSE-450 [23]", "value": "Dose-Dependent Effect"}, {"measurement": "Activity", "setting": "KYSE-30 [24]", "value": "Dose-Dependent Effect"}, {"measurement": "Activity", "setting": "KYSE-450 [25]", "value": "Dose-Dependent Effect"}, {"measurement": "Activity", "setting": "KYSE-30 [26]", "value": "inactive"}, {"measurement": "Activity", "setting": "KYSE-450 [27]", "value": "inactive"}, {"measurement": "Activity", "setting": "KYSE-450 [28]", "value": "inactive"}, {"measurement": "Activity", "setting": "KYSE-30 [29]", "value": "inactive"}, {"measurement": "inhibition", "setting": "KYSE-30 [30]", "value": "Tde"}, {"measurement": "Activity", "setting": "KYSE-450 [31]", "value": "Active"}, {"measurement": "Activity", "setting": "KYSE-30 [32]", "value": "Active"}, {"measurement": "Activity", "setting": "KYSE-450 [33]", "value": "Active"}]}]}
